Test results: ChEMBL document CHEMBL4507316 (2021)

Columns and labels:
[1] = molecular target: Tyrosine-protein kinase Fes/Fps (Homo sapiens) (UniProt P07332); assay: FES ProQinase selectivity panel; details: Compound concentration 1.0 uM
[2] = molecular target: Serine/threonine-protein kinase Nek2 (Homo sapiens) (UniProt P51955); assay: NEK2 ProQinase selectivity panel; details: Compound concentration 1.0 uM
[3] = system: Tyrosine-protein kinase ABL1 (Homo sapiens), P00519 [H396P]; assay: ABL1 H396P ProQinase selectivity panel; details: Compound concentration 1.0 uM
[4] = molecular target: Tyrosine-protein kinase Yes (Homo sapiens) (UniProt P07947); assay: YES ProQinase selectivity panel; details: Compound concentration 1.0 uM
[5] = molecular target: Serine/threonine-protein kinase PAK 6 (Homo sapiens) (UniProt Q9NQU5); assay: PAK6 ProQinase selectivity panel; details: Compound concentration 1.0 uM
[6] = molecular target: 5-hydroxytryptamine receptor 1E (Homo sapiens) (UniProt P28566); details: Compound concentration 10.0 uM
[7] = molecular target: Receptor tyrosine-protein kinase erbB-4 (Homo sapiens) (UniProt Q15303); assay: ERBB4 ProQinase selectivity panel; details: Compound concentration 1.0 uM
[8] = molecular target: Dual specificity mitogen-activated protein kinase kinase 1 (Homo sapiens) (UniProt Q02750); assay: MEK1 ProQinase selectivity panel; details: Compound concentration 1.0 uM
[9] = molecular target: 5-hydroxytryptamine receptor 7 (Homo sapiens) (UniProt P34969); details: Compound concentration 10.0 uM
[10] = molecular target: 5-hydroxytryptamine receptor 1B (Homo sapiens) (UniProt P28222); details: Compound concentration 10.0 uM
[11] = molecular target: Maternal embryonic leucine zipper kinase (Homo sapiens) (UniProt Q14680); assay: MELK ProQinase selectivity panel; details: Compound concentration 1.0 uM
[12] = molecular target: Mitogen-activated protein kinase kinase kinase 2 (Homo sapiens) (UniProt Q9Y2U5); assay: MEKK2 ProQinase selectivity panel; details: Compound concentration 1.0 uM
[13] = molecular target: Alpha-1B adrenergic receptor (Homo sapiens) (UniProt P35368); details: Compound concentration 10.0 uM
[14] = molecular target: Serine/threonine-protein kinase 17A (Homo sapiens) (UniProt Q9UEE5); assay: STK17A ProQinase selectivity panel; details: Compound concentration 1.0 uM
[15] = molecular target: Dual specificity tyrosine-phosphorylation-regulated kinase 1B (Homo sapiens) (UniProt Q9Y463); assay: DYRK1B ProQinase selectivity panel; details: Compound concentration 1.0 uM
[16] = molecular target: Proto-oncogene tyrosine-protein kinase ROS (Homo sapiens) (UniProt P08922); assay: ROS ProQinase selectivity panel; details: Compound concentration 1.0 uM
[17] = molecular target: Insulin receptor (Homo sapiens) (UniProt P06213); assay: INS-R ProQinase selectivity panel; details: Compound concentration 1.0 uM
[18] = molecular target: Mitogen-activated protein kinase kinase kinase 8 (Homo sapiens) (UniProt P41279); assay: COT ProQinase selectivity panel; details: Compound concentration 1.0 uM
[19] = molecular target: cGMP-dependent protein kinase 1 (Homo sapiens) (UniProt Q13976); assay: PRKG1 ProQinase selectivity panel; details: Compound concentration 1.0 uM
[20] = molecular target: Serine/threonine-protein kinase 16 (Homo sapiens) (UniProt O75716); assay: TSF1 ProQinase selectivity panel; details: Compound concentration 1.0 uM
[21] = molecular target: Inhibitor of nuclear factor kappa-B kinase subunit beta (Homo sapiens) (UniProt O14920); assay: IKK-beta ProQinase selectivity panel; details: Compound concentration 1.0 uM
[22] = molecular target: CDK6/cyclin D1 (Homo sapiens) (UniProt P24385+Q00534); assay: CDK6/CycD1 ProQinase selectivity panel; type: protein-complex assay; details: Compound concentration 1.0 uM
[23] = molecular target: Mitogen-activated protein kinase kinase kinase kinase 2 (Homo sapiens) (UniProt Q12851); assay: MAP4K2 ProQinase selectivity panel; details: Compound concentration 1.0 uM
[24] = molecular target: Mitogen-activated protein kinase kinase kinase 11 (Homo sapiens) (UniProt Q16584); assay: MAP3K11 ProQinase selectivity panel; details: Compound concentration 1.0 uM
[25] = molecular target: Cytoplasmic tyrosine-protein kinase BMX (Homo sapiens) (UniProt P51813); assay: BMX ProQinase selectivity panel; details: Compound concentration 1.0 uM
[26] = molecular target: Ephrin type-B receptor 2 (Homo sapiens) (UniProt P29323); assay: EPHB2 ProQinase selectivity panel; details: Compound concentration 1.0 uM
[27] = molecular target: STE20-like serine/threonine-protein kinase (Homo sapiens) (UniProt Q9H2G2); assay: SLK ProQinase selectivity panel; details: Compound concentration 1.0 uM
[28] = molecular target: Ephrin type-B receptor 3 (Homo sapiens) (UniProt P54753); assay: EPHB3 ProQinase selectivity panel; details: Compound concentration 1.0 uM
[29] = molecular target: Calcium/calmodulin-dependent protein kinase type II subunit alpha (Homo sapiens) (UniProt Q9UQM7); assay: CAMK2A ProQinase selectivity panel; details: Compound concentration 1.0 uM
[30] = molecular target: Mitogen-activated protein kinase kinase kinase 5 (Homo sapiens) (UniProt Q99683); assay: ASK1 ProQinase selectivity panel; details: Compound concentration 1.0 uM
[31] = molecular target: Aurora kinase C (Homo sapiens) (UniProt Q9UQB9); assay: Aurora-C ProQinase selectivity panel; details: Compound concentration 1.0 uM
[32] = system: Hepatocyte growth factor receptor (Homo sapiens), P08581 [Y1230C]; assay: MET Y1230C ProQinase selectivity panel; details: Compound concentration 1.0 uM
[33] = molecular target: Ephrin type-A receptor 7 (Homo sapiens) (UniProt Q15375); assay: EPHA7 ProQinase selectivity panel; details: Compound concentration 1.0 uM
[34] = molecular target: Inhibitor of nuclear factor kappa-B kinase subunit alpha (Homo sapiens) (UniProt O15111); assay: IKK-alpha ProQinase selectivity panel; details: Compound concentration 1.0 uM
[35] = system: Tyrosine-protein kinase ABL1 (Homo sapiens), P00519 [M351T]; assay: ABL1 M351T ProQinase selectivity panel; details: Compound concentration 1.0 uM
[36] = molecular target: G protein-coupled receptor kinase 6 (Homo sapiens) (UniProt P43250); assay: GRK6 ProQinase selectivity panel; details: Compound concentration 1.0 uM
[37] = molecular target: Myosin light chain kinase, smooth muscle (Homo sapiens) (UniProt Q15746); assay: MYLK ProQinase selectivity panel; details: Compound concentration 1.0 uM
[38] = molecular target: Serine/threonine-protein kinase B-raf (Homo sapiens) (UniProt P15056); assay: B-RAF wt ProQinase selectivity panel; details: Compound concentration 1.0 uM
[39] = molecular target: Serine/threonine-protein kinase PAK 2 (Homo sapiens) (UniProt Q13177); assay: PAK2 ProQinase selectivity panel; details: Compound concentration 1.0 uM
[40] = molecular target: Cyclin-dependent kinase 2/cyclin E (Homo sapiens) (UniProt P24864+P24941+O96020); assay: CDK2/CycE ProQinase selectivity panel; type: protein-complex assay; details: Compound concentration 1.0 uM
[41] = molecular target: Aurora kinase B (Homo sapiens) (UniProt Q96GD4); assay: Aurora-B ProQinase selectivity panel; details: Compound concentration 1.0 uM
[42] = molecular target: Tyrosine-protein kinase BTK (Homo sapiens) (UniProt Q06187); assay: BTK ProQinase selectivity panel; details: Compound concentration 1.0 uM
[43] = system: Fibroblast growth factor receptor 1 (Homo sapiens), P11362 [V561M]; assay: FGF-R1 V561M ProQinase selectivity panel; details: Compound concentration 1.0 uM
[44] = molecular target: Fibroblast growth factor receptor 3 (Homo sapiens) (UniProt P22607); assay: FGF-R3 wt ProQinase selectivity panel; details: Compound concentration 1.0 uM
[45] = molecular target: Misshapen-like kinase 1 (Homo sapiens) (UniProt Q8N4C8); assay: MINK1 ProQinase selectivity panel; details: Compound concentration 1.0 uM
[46] = system: Leucine-rich repeat serine/threonine-protein kinase 2 (Homo sapiens), Q5S007 [G2019S]; assay: LRRK2 G2019S ProQinase selectivity panel; details: Compound concentration 1.0 uM
[47] = molecular target: Serine/threonine-protein kinase 33 (Homo sapiens) (UniProt Q9BYT3); assay: STK33 ProQinase selectivity panel; details: Compound concentration 1.0 uM
[48] = molecular target: Lymphokine-activated killer T-cell-originated protein kinase (Homo sapiens) (UniProt Q96KB5); assay: PBK ProQinase selectivity panel; details: Compound concentration 1.0 uM
[49] = molecular target: Serine/threonine-protein kinase pim-3 (Homo sapiens) (UniProt Q86V86); assay: PIM3 ProQinase selectivity panel; details: Compound concentration 1.0 uM

STE20-like serine/threonine-protein kinase (Homo sapiens), sequence (Q9H2G2 whole entry, looked up): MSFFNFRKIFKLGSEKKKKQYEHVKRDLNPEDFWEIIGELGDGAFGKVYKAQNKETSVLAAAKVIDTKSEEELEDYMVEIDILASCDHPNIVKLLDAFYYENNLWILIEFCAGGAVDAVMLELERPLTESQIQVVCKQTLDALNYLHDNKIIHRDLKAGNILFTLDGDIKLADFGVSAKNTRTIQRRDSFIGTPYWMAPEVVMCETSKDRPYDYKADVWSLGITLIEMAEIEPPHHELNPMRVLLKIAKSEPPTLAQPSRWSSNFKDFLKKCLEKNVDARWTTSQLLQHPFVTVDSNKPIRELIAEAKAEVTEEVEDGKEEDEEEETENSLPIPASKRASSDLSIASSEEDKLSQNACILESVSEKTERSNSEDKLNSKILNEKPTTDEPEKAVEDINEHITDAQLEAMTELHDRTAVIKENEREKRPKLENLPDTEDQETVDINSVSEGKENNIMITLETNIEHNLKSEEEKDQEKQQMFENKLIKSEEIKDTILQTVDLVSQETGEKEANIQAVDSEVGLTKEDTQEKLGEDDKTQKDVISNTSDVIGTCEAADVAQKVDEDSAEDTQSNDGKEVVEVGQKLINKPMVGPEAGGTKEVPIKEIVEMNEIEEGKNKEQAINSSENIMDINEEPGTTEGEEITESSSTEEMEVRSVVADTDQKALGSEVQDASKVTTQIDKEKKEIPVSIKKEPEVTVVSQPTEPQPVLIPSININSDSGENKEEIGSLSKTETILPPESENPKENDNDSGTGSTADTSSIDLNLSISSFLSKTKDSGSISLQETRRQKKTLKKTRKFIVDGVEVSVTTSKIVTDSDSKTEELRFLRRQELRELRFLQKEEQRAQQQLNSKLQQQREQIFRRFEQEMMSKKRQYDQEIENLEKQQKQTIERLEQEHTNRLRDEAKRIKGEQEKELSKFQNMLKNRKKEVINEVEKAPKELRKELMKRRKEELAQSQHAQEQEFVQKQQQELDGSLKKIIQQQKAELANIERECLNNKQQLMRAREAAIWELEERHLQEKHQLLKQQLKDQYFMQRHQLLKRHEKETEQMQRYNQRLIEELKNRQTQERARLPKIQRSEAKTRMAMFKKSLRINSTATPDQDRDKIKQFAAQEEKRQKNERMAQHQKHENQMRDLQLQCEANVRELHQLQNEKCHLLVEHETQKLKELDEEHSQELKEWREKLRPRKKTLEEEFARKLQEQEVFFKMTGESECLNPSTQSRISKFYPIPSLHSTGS
Tyrosine-protein kinase BTK (Homo sapiens), sequence (Q06187 whole entry): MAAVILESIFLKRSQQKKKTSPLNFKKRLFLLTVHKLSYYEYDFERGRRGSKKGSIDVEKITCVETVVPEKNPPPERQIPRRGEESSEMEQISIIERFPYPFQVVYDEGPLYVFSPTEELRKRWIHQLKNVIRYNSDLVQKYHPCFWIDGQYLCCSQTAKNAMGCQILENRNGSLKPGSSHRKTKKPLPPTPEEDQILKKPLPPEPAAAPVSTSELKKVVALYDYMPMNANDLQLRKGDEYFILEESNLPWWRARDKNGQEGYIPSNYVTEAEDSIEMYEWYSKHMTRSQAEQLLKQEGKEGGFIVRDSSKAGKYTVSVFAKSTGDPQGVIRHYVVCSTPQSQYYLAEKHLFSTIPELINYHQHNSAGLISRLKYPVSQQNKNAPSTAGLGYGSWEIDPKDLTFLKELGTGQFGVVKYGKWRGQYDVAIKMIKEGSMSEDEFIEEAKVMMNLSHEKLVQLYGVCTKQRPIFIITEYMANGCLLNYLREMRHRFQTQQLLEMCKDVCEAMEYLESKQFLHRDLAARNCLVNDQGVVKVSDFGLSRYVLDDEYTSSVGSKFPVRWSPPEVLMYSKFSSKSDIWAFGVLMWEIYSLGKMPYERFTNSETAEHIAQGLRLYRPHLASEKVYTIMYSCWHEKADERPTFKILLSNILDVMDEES
Serine/threonine-protein kinase 16 (Homo sapiens), sequence (O75716 whole entry): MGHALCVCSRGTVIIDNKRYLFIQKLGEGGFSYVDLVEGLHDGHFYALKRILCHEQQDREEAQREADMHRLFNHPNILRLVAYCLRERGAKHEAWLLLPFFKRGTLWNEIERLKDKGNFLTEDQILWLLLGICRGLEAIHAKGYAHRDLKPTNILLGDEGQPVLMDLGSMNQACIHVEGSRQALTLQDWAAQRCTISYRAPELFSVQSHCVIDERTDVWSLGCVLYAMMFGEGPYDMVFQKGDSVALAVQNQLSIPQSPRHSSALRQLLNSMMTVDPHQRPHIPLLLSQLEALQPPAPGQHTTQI
Serine/threonine-protein kinase 17A (Homo sapiens), sequence (Q9UEE5 whole entry): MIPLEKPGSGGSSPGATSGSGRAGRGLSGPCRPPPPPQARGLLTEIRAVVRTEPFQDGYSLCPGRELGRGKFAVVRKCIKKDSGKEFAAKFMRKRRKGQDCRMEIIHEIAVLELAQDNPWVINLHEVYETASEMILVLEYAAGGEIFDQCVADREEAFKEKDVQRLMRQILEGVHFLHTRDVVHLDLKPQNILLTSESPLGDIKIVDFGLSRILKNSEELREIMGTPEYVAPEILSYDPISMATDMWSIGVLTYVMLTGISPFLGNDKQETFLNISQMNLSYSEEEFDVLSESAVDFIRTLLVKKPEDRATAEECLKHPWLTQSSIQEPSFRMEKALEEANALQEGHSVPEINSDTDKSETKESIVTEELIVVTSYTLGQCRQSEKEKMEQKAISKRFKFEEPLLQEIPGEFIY
Serine/threonine-protein kinase PAK 6 (Homo sapiens), sequence (Q9NQU5 whole entry, looked up): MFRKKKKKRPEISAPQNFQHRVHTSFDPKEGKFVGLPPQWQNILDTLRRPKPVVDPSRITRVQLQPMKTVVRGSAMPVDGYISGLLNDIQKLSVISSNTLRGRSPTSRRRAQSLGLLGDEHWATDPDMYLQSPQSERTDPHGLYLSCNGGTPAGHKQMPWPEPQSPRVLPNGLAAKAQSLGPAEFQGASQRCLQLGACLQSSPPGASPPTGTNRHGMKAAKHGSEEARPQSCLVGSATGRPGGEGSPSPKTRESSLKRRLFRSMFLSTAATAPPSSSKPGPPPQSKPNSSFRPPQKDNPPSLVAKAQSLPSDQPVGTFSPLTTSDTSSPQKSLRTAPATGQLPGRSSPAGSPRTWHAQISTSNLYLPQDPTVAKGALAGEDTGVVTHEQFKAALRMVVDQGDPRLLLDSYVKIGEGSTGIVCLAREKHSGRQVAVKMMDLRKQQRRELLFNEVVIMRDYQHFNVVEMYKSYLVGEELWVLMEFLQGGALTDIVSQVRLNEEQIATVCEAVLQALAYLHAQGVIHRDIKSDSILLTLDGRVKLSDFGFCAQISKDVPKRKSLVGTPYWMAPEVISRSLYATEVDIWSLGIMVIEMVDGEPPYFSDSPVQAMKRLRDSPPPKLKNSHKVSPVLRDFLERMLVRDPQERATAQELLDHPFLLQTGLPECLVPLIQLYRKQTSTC
Mitogen-activated protein kinase kinase kinase 5 (Homo sapiens), sequence (Q99683 whole entry): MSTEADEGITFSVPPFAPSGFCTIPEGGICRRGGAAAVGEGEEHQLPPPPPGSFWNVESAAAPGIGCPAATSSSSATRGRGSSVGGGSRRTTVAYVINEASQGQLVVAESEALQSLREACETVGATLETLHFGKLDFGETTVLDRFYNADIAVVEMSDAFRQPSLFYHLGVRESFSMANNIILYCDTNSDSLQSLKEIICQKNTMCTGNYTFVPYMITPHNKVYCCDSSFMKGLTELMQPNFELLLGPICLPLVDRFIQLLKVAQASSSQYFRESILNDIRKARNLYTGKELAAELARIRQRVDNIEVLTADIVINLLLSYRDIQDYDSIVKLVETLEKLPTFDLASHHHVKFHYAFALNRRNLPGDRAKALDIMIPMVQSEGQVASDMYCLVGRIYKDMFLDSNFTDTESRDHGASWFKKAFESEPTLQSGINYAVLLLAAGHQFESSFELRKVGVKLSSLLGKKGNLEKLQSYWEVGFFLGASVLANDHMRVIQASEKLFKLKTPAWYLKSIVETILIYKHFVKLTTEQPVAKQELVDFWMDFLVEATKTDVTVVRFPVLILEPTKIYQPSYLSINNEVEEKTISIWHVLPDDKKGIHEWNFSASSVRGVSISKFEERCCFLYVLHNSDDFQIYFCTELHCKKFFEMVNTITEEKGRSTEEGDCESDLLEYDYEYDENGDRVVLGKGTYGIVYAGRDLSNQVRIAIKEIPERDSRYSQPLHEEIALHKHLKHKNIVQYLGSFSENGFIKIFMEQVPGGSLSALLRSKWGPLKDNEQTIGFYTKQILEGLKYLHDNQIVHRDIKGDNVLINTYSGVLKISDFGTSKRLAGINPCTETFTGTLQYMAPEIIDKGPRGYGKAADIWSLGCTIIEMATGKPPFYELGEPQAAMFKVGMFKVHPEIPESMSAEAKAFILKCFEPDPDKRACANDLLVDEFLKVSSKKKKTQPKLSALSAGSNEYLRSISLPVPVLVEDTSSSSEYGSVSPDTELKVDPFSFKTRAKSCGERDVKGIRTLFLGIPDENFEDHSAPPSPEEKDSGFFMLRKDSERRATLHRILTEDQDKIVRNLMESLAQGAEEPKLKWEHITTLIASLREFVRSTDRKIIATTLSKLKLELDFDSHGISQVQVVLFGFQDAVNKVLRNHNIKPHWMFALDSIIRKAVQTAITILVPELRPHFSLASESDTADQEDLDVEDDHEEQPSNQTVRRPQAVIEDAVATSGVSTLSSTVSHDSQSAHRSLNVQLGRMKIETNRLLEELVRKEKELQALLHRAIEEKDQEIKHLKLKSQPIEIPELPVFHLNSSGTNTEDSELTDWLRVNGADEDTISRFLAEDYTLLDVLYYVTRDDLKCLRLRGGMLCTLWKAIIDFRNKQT

% Residual activity with Skepinone-L [1]: 121%
% Residual activity with Skepinone-L [2]: 85%
% Residual activity with Skepinone-L [3]: 99%
% Residual activity with Skepinone-L [4]: 119%
% Residual activity with Skepinone-L [5]: 101%
inhibition [6]: 18.8%
% Residual activity with Skepinone-L [7]: 106%
% Residual activity with Skepinone-L [8]: 79%
inhibition [9]: -9.25%
inhibition [10]: 15.2%
% Residual activity with Skepinone-L [11]: 81%
% Residual activity with Skepinone-L [12]: 89%
inhibition [13]: 5.52%
% Residual activity with Skepinone-L [14]: 77%
% Residual activity with Skepinone-L [15]: 102%
% Residual activity with Skepinone-L [16]: 102%
% Residual activity with Skepinone-L [17]: 101%
% Residual activity with Skepinone-L [18]: 91%
% Residual activity with Skepinone-L [19]: 110%
% Residual activity with Skepinone-L [20]: 94%
% Residual activity with Skepinone-L [21]: 81%
% Residual activity with Skepinone-L [22]: 88%
% Residual activity with Skepinone-L [23]: 89%
% Residual activity with Skepinone-L [24]: 114%
% Residual activity with Skepinone-L [25]: 108%
% Residual activity with Skepinone-L [26]: 91%
% Residual activity with Skepinone-L [27]: 39%
% Residual activity with Skepinone-L [28]: 108%
% Residual activity with Skepinone-L [29]: 83%
% Residual activity with Skepinone-L [30]: 103%
% Residual activity with Skepinone-L [31]: 85%
% Residual activity with Skepinone-L [32]: 97%
% Residual activity with Skepinone-L [33]: 109%
% Residual activity with Skepinone-L [34]: 88%
% Residual activity with Skepinone-L [35]: 102%
% Residual activity with Skepinone-L [36]: 82%
% Residual activity with Skepinone-L [37]: 78%
% Residual activity with Skepinone-L [38]: 112%
% Residual activity with Skepinone-L [39]: 83%
% Residual activity with Skepinone-L [40]: 85%
% Residual activity with Skepinone-L [41]: 96%
% Residual activity with Skepinone-L [42]: 100%
% Residual activity with Skepinone-L [43]: 89%
% Residual activity with Skepinone-L [44]: 102%
% Residual activity with Skepinone-L [45]: 94%
% Residual activity with Skepinone-L [46]: 77%
% Residual activity with Skepinone-L [47]: 94%
% Residual activity with Skepinone-L [49]: 78%
SMILES: O=C1c2ccc(Nc3ccc(F)cc3F)cc2CCc2ccc(OC[C@H](O)CO)cc21 [Skepinone-L]
% Residual activity with Skepinone-L [48]: 113%
